The values below are quoted from earlier work in patent US20120156286A1, “COMPOSITIONS AND METHODS FOR INCREASED DELIVERY OF COENZYME Q10” (IMAGENETIX, INC., priority 2010, published 2012).

The conditions of this series: in vivo.

Turning to `COC1=C(OC)C(=O)C(C/C=C(\C)CC/C=C(\C)CC/C=C(\C)CC/C=C(\C)CC/C=C(\C)CC/C=C(\C)CC/C=C(\C)CC/C=C(\C)CC/C=C(\C)CCC=C(C)C)=C(C)C1=O` [CoQ10, Coenzyme Q10], the Intestinal absorption result was “less than 10%”.
